This note sets out measurements from patent publication US12209256B2, “System for protein inactivation and recombinant phages for targeted bacterial killing, infection, biodetection, and as a means of protein extraction” (priority 2018, dated 2025).

One experiment deals with HIS-HALO-Gp59. In words: Western blot to assess HIS-HALO-Gp59 cleavage. The format is cell-based, E. coli. In general terms: In western blotting, separated proteins are transferred to a membrane and probed.
The subject of experiment [1] is V. parahaemolyticus lysogenized with phage VP882. In words: Growth/lysis assay (OD600), VP882 lysogen. The format is cell-based. The note with it: for host cell lysis (OD600): wild-type VP882 lysogen, expression induced (ara or aTc) or MMC added. On the procedure: (§1) Growth, Lysis, and Reporter Assays. Typically, overnight cultures were back diluted 1:1000 into fresh medium with appropriate antibiotics and strains were grown to OD600 0.5-0.6. Cultures were back diluted 1:20, and grown to OD600 0.1, before being dispensed (200 μL) into 96 well plates (Corning Costar 3904). MMC, ara, or aTc was added as specified. […] Plates were shaken at 37° C. and a BioTek Synergy Neo2 Multi-Mode reader was used to measure OD600, OD600 and bioluminescence, or OD600 and fluorescence. […]. In the case of fluorescence assays, M9 supplemented with 0.4% casamino acids (BD-Difco) was used and readings were made by excitation at 588 nm and emission at 633 nm. The glycerol stocks were prepared from three independent colonies of each strain at a single OD600. Care was taken to ensure that the OD600 between these strains was identical prior to storage. Parallel cultures of the same strains were used for viral preparations.

The subject of experiment [2] is V. parahaemolyticus harboring phage VP882. Kind of experiment: Phage (virion) DNA isolation from culture fluids. The format is cell-based. On the procedure:
Phage DNA Isolation. Phage DNA was purified from phage particles present in the supernatants of lysed cells (virion) and from host cell pellets lysogenized with VP882 (prophage). Prophage DNA was purified using the FosmidMAX kit (Lucigen) according to the manufacturer's protocol for 1.5 mL cultures. Virion DNA was isolated using a Phage DNA isolation kit (Norgen Biotek) including the DNase I and Proteinase K treatment steps indicated in the manufacturer's protocol.

A further experiment has as its system phage VP882 cI. In words: Confocal microscopy of HALO-cI localization (VP882 cI). In kind it is cell-based. The note with it: single-cell level in E. coli. On the procedure: (§2) Confocal Microscopy. Overnight cultures, started from single colonies of E. coli (T7Express) carrying HALO and/or SNAP fusions (see Table 2) were back-diluted 1:1000, and grown at 37° C. to OD600˜0.2. Either MMC, aTc, or ethanol in water was added. The so-treated samples were returned to shaking at 37° C. for an additional 60 min prior to live-cell staining and imaging. Live-cell staining was performed using a protocol adapted from (Ke et al., 2016). Briefly, HALO-TMR was added to each sample at 10 μM. The samples were incubated in the dark for 15-20 min at 37° C. The cells were pelleted at 13,000 g×1 min, washed twice with M9 medium, and resuspended in 50-150 μL of fresh M9 medium. 5-10 μL of each sample was spotted onto a glass coverslip and overlaid with a small amount of M9-agar. The samples were imaged on a Leica SP8 Confocal microscope. HALO-TMR was excited with 561 nm light and detected within a range of 579-622 nm. For SNAP-Qtip co-localization experiments, the SNAP-specific dye JF503 (Grimm et al., 2017) was added at 10 μM at the same time as the HALO-TMR reagent was added. SNAP was visualized by excitation at 504 nm and detection within 516-540 nm. All images were acquired under the same conditions (laser power and gain) in LASX (Leica Microsystems). Images were imported into Fiji for processing, which consisted solely of adjusting brightness and contrast (min-max).

The subject of experiment [3] is Pq-lux. In words: Pq-lux reporter assay in V. parahaemolyticus. The note with it: VP882 lysogen. In kind it is cell-based. On the procedure: as §1
On the technique in general: In a reporter assay the amount or activity of a reporter protein is the signal.

The test system of experiment [4] is Pq-lux. Kind of experiment: Pq-lux reporter assay in recombinant E. coli. In kind it is cell-based. On the procedure: as §1
The next experiment has as its system Pgp69-lux. Kind of experiment: Pgp69-lux reporter assay in V. parahaemolyticus lysogen. The format is cell-based. The note with it: VP882 lysogen. On the procedure: as §1
Experiment [5] deals with E. coli, V. cholerae, and V. parahaemolyticus. Kind of experiment: Generalized DPO-based phage kill switch growth/lysis assay (FIG. 4). The note with it: arabinose plus DPO (50 μM synthetic DPO per FIG. 4 legend). In kind it is cell-based. On the procedure: FIG. 4 is a graph showing the growth of E. coli, V. cholerae, and V. parahaemolyticus strains lysogenized with the generalized DPO-based phage kill switch in minimal medium lacking (black bars) or containing (white bars) 50 μM synthetic DPO to induce lysis, where all media contained arabinose.
as §1

Experiment [6] deals with phage VP882 vqmAPhage::Tn5 in V. cholerae. Kind of experiment: Viral load by quantitative PCR of viral preparations. In kind it is cell-based. On the procedure:
qPCR and Viral Preparations. Viral preparations consisted of purified non-chromosomal DNA (ZR BAC kit, Zymo Research) prepared from 2 mL of cells. Following addition of the indicated compounds or water control, the cultures were returned to growth for 3 h prior to harvesting. This alteration in procedure was necessary to enable growth of sufficient cells for use with the viral preparation kit. 0.5 ng of purified non-chromosomal DNA was used for each qPCR reaction. qPCR reactions were performed as described above for qRT-PCR reactions. Data were analyzed by a comparative CT method in which the VP882 phage-specific primer set (JSO-1399×1400) was normalized to the non-phage plasmid-specific primer set (JSO-1401×1402). The reference sample for each comparison was the isogenic strain (Δtdh or WT) that was not induced.

For experiment [7], the system named is V. cholerae carrying the VP882 prophage. Kind of experiment: Growth/lysis assay (OD600), V. cholerae carrying VP882. In kind it is cell-based. On the procedure:
as §1

The next experiment relates to lambda HALO-cI. In words: Confocal microscopy of HALO-cI localization (lambda cI). In kind it is cell-based. The note with it: co-expression in E. coli. On the procedure: as §2
For a further experiment, the system named is HALO-cI from MJ1. In words: Confocal microscopy of HALO-cI localization (MJ1 cI). The note with it: co-expression in E. coli. The format is cell-based, phage MJ1. On the procedure:
as §2

For another experiment, the system named is cI. In words: Co-immunoprecipitation of HALO-cI with HIS-Gp55. The format is binding, phage VP882. The note with it: combined E. coli lysates.
Experiment [8] relates to HALO-cI repressor from vibriophage VP58.5. Kind of experiment: Confocal microscopy of HALO-cI localization (VP58.5 cI). The format is cell-based. The note with it: co-expression in E. coli. On the procedure:
as §2

Setting [9] is: synthetic DPO supplied to WT and Δtdh strains, vqmAPhage induced.
The mark [10] stands for this setting: WT and Δtdh strains, qtip from inducible promoter or MMC.

As to `CO[C@@]12[C@H](COC(N)=O)C3=C(C(=O)C(C)=C(N)C3=O)N1C[C@@H]1N[C@@H]12` [MMC, mitomycin C], the “HIS-HALO-Gp59 bands on Western blot” value in the experiment with HIS-HALO-Gp59 (recA+ E. coli, MMC-treated) is given as “lower-molecular-weight bands, presumably cleavage products”. In the experiment on HIS-HALO-Gp59 (ΔrecA E. coli, MMC treatment), the “HIS-HALO-Gp59 protein on Western blot” value is “unaffected”. In addition, the host cell lysis result is reported as “do not” in experiment [1] (VP882 phage harboring gp62::Tn5) and “lyse” in [1] (VP882 phage with a Tn5 in vqmAPhage). Moreover, in experiment [2], the “release of VP882 phage DNA into culture fluids” value is given as “VP882 phage DNA could be purified”. Further, the “cI localization (VP882 HALO-cI)” value in the experiment on phage VP882 cI is recorded as “remained diffuse”. Moreover, the “light production from Pq-lux” value in the experiment with Pq-lux [3] is recorded as “rapidly increased”. Further, the Pq-lux light production result with Pq-lux [4] (recA+ E. coli carrying Pq-lux and HIS-HALO-Gp59) is given as “significant increase in light production”; with Pq-lux [4] (ΔrecA E. coli carrying Pq-lux and HIS-HALO-Gp59), “no effect”. Further, the “light production from Pgp69-lux” value in the experiment on Pgp69-lux is recorded as “rapidly increased”. Also, in the experiment on Pgp69-lux, the “offset between activation of Pq-lux and activation of Pgp69-lux” value stood at 10 min.
Consider `Cc1cnc(O)c(C)n1` [DPO, 3,5-dimethylpyrazine-2-ol], for which the lysis entry in experiment [5] is listed as “maximal lysis”; in [7] (setting [9]), “lysis occurred”. The host cell lysis entry in experiment [1] (minimal medium lacking threonine, DPO added in the absence of induction of VqmAPhage) is reported as “no lysis”; in [1] (minimal medium lacking threonine, vqmAPhage induced with 0.2% ara, DPO 10 μM), “maximal host cell lysis”. For the same molecule, the “additional increase in viral load with exogenous DPO versus endogenous DPO only” value in experiment [6] (WT strain) is recorded as 35%. Also, the viral load entry in experiment [6] (setting [9]) was “increased in both strains to similar extents”. For the same molecule, in experiment [7] (WT strain), the “additional lysis with exogenous DPO versus endogenously-produced DPO only” value is on record as 25%.

B1: ORF584 (protein, listed as Vibrio cholerae)
chain: MDLRVSNAKDLLDKFEEKAVQMESISQLLANAPEDLTLATVQGSLSALASIARDAGEAADRLRTISSAEG
As for B1, the “host cell lysis (OD600)” value in experiment [1] is recorded as “lysis”. Besides, the “cI aggregation (lambda HALO-cI)” value with lambda HALO-cI was “not”. The entries for the “cI localization (VP882 HALO-cI)” value in the experiment on phage VP882 cI and in the experiment with phage VP882 cI (listed as orf584) were “stripe of cI localization along the length of the cell” and “caused aggregation”, respectively. Also, the “cI aggregation (MJ1 HALO-cI)” value with HALO-cI from MJ1 is “caused aggregation”. Further, the “phage VP882 Pq expression” value in the experiment on Pq-lux [4] (orf584 induced, host per Table 2) is “de-repression”.

B2: Qtip (protein, listed as Vibrio cholerae)
chain: MCDFCSEHIDSLDALQSSLEKGTAIIELLDTALSAGIEVSPRVVSCALSAAHQHLQVSEKINRSLQIGCGSKEVLRLVD
Regarding B2, in the experiment on cI, the “binding of cI during purification of HIS-Gp55” value is listed as “cI binds to Gp55”. Besides, in experiment [8], the “cI aggregation (VP58.5 HALO-cI)” value is recorded as “Aggregation also occurred”. The “host cell lysis (OD600)” value in experiment [1] is listed as “host cell lysis comparable to when MMC was added or vqmAPhage was induced”. In addition, the viral production entry in experiment [6] (setting [10]) is “increased viral production”. Further, the “cI aggregation (lambda HALO-cI)” value with lambda HALO-cI was “No aggregation occurred”. The “cI localization (VP882 HALO-cI)” value in the experiment on phage VP882 cI is recorded as “foci located primarily at the cell poles”. In addition, in the experiment on HALO-cI from MJ1, the “cI aggregation (MJ1 HALO-cI)” value is reported as “resulted in foci”. Besides, the Pq-lux activity entry with Pq-lux [4] (combined reporter plasmid (inducible vqmAPhage, Pq-lux, cI), pTetA-gp55 induced) is reported as “sufficient to generate Pq-lux activity”. Moreover, the lysis entry in experiment [7] (setting [10]) is listed as “Near-complete lysis”.
